For one test, the target named is T1, GlyT2 S481G mutant (Rattus norvegicus, UniProt P58295, S481G).
T1 construct: expressed in transfected cells; host or cells: COS7
T1 sequence (P58295 1-799 S481G): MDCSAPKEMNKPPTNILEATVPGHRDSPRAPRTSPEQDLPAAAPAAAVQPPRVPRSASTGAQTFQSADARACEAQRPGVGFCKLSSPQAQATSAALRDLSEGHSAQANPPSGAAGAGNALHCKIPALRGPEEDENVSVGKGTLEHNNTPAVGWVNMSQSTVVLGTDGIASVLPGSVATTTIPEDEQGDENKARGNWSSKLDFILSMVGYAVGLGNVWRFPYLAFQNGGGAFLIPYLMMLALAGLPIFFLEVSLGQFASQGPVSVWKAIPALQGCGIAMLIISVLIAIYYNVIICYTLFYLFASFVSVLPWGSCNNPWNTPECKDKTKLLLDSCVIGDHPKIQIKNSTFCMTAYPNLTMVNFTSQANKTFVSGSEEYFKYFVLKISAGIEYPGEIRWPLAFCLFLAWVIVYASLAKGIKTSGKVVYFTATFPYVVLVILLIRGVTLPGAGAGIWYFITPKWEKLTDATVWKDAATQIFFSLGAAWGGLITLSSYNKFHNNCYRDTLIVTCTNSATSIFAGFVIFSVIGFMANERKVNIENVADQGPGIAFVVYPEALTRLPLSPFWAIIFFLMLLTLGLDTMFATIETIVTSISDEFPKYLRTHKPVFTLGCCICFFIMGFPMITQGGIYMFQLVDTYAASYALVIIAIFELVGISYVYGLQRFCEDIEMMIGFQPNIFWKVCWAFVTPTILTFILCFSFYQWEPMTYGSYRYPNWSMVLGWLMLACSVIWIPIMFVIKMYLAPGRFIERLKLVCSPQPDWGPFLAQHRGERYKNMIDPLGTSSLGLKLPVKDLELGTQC
In words: [3H]glycine transport by GlyT2 mutant in COS7 cells. Format: cell-based.

The target in a further test is T2, GlyT2 D635E mutant (Rattus norvegicus, UniProt P58295, D635E).
T2 construct: expressed in transfected cells; host or cells: COS7
T2 sequence (P58295 1-799 D635E): T1 sequence (P58295 1-799 S481G) with G481S, D635E
The description is as above. The test is classed as cell-based. Conditions: read-out: IC50 (Table S1).

Where a chain is given by its changes, count along the chain named.

One molecule from article PMC8691691 (ACS Chemical Neuroscience, 2021) can be followed below.

Usually IC50 stands for the concentration at which inhibition is half-maximal.

On to `N[C@@H](COC(c1cccc(F)c1)c1ccccc1OCc1ccccc1)C(=O)O` (stereo partly drawn) [ALX1393], for which the “effect of mutation on inhibition of glycine transport” value on GlyT2 S481G mutant (S481G, 1 μM inhibitor, 25 μM glycine) is reported as “more reduced inhibition potency for ALX1393 than for ORG25543”. Moreover, the figures for the IC50 at GlyT2 S481G mutant (read-out: IC50 (Table S1)) and on GlyT2 D635E mutant were 75 ± 8 nM and 30 ± 4 nM, respectively.
